Reference: patent US12528812B2 (Genentech, Inc., priority 2020, dated 2026)
Like-named read-outs stand apart in the source and are kept apart here.

Legend:
[1] = biological target: Recombinant human JAK2 kinase domain protein (Residues 812-1132) (Homo sapiens, UniProt O60674); assay: JAK2 biochemical assay (LabChip mobility shift, Ki)
Procedure: The in vitro biochemical assays quantify JAK-catalyzed phosphorylation of a synthetic peptide, as detected using a LabChip® EZ Reader II microfluidic mobility shift instrument (PerkinElmer; Waltham, MA). […] Y-1B is fluorescently labeled on the N-terminus with 5-FAM (5-carboxyfluorescein) and contains a single tyrosine residue (Y) that can be phosphorylated by JAK activity. The substrate peptide stock is prepared in DMSO at 5 mM. […] In each titration experiment, test compound was tested in duplicate at each of the twelve concentrations. Blank reactions contained ATP, peptide, and DMSO, but no JAK or test compound, whereas uninhibited control reactions contained ATP, peptide, JAK, and DMSO, but no test compound.
Peptide plus ATP mixture (24 μL) was added to 1 μL of test compound in DMSO (or DMSO alone). The reactions were initiated by adding 25 μL of JAK enzyme to the inhibitor/peptide/ATP mixture before thoroughly mixing the resultant solution. Reactions were incubated at room temperature (22° C.-23° C.) in a final volume of 50 μL per well in 384-well plates. After a 30-minute incubation, the reactions were stopped by adding 25 μL of 150 mM ethylenediaminetetraacetic acid in 100 mM HEPES buffer (pH 7.2) containing 0.015% Brij 35 to each well.
In each reaction, the residual Y-1B substrate and the phospho-peptide product generated were separated using the EZ Reader II instrument. Electrophoretic separation of molecules of product from molecules of substrate was achieved using downstream and upstream voltages of −500 and −2600 V, respectively, at an operating pressure of −1.3 psi.
The extent (or percent) of conversion of substrate to product was calculated from the corresponding peak heights in the electropherogram using HTS Well Analyzer software, Version 5.2 (PerkinElmer), and the following equation (Equation 1): conversion=[P÷(S+P)]×100 Equation 1% where S and P represent the peak heights of the substrate and product, respectively. After any baseline signal from blank wells containing no JAK was subtracted from the signal of all test wells, the % conversion data were converted to fractional activity as shown in Equation 2, where vi and vo are the % conversion in the presence and absence of test compound, respectively.

[2] = biological target: T1, recombinant human JAK1 kinase domain protein (Residues 854-1154) (Homo sapiens, UniProt P23458); assay: JAK1 biochemical assay (LabChip mobility shift, Ki); details: read-out: Biochem JAK1 Ki
T1 construct: human JAK1 kinase domain protein (Residues 854-1154); purchased Proteros Biostructures GmbH (Martinsried, Germany); host or cells: insect cells
T1 sequence (P23458 854-1154): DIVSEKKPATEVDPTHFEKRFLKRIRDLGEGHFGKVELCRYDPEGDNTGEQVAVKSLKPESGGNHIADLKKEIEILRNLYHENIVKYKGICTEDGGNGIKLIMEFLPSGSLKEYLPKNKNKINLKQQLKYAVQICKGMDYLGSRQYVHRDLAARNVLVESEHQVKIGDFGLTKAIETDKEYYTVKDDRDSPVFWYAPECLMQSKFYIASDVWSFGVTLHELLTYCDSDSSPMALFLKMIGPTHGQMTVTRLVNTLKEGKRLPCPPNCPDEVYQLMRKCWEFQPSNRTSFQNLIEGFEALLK

[3] = test system: IL-13-stimulated STAT6 phosphorylation in human lung bronchial epithelial BEAS-2B cell line; assay: P-STAT6 BEAS-2B + IL-13 cell assay; type: cell-based; details: BEAS2B cells, IL13 stimulation, read-out: Cellular JAK1 PSTAT6 BEAS2B + IL13
Summary of the method: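 BEAS-2B cells grown 48 h at 37 °C, pre-treated 1 h with compound (10-point 1:2 dilution curve), then stimulated 15 min with human recombinant IL-13 (250 ng/mL stock). Lysate P-STAT6 (Tyr641) read by MSD sandwich ELISA with total-STAT6 capture; IC50 from four-parameter logistic fit of control-normalised data.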

Chain of Recombinant human JAK2 kinase domain protein (Residues 812-1132) (O60674 812-1132): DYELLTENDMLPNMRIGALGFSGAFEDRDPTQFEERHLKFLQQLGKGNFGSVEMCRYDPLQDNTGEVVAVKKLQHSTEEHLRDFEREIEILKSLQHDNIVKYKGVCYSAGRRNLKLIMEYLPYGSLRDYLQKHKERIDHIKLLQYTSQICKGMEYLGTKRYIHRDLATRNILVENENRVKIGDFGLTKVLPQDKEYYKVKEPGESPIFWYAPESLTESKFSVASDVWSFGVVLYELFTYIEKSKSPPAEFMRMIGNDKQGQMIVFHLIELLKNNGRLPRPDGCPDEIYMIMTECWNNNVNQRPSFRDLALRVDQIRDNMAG

Ki ([1]; Biochem JAK2 Ki) | Ki [2] | Ki ([1]; read-out: Biochem JAK2 Ki) | Structure (SMILES) | IC50 ([3]; Homo sapiens, BEAS-2B) | IC50 [3]
0.29 nM | 0.57 nM |  | Cc1nn(CCO)cc1Oc1ccc(OC(F)F)c(-c2nn(C)cc2NC(=O)c2cnn3cccnc23)c1 [Example 154, N-[3-[2-(difluoromethoxy)-5-[1-(2-hydroxyethyl)-3-methyl-pyrazol-4-yl]oxy-phenyl]-1-methyl-pyrazol-4-yl]pyrazolo[1,5-a]pyrimidine-3-carboxamide] | 37 nM | 
0.95 nM | 1.1 nM |  | CN(C)[C@H]1CCN(C(=O)c2cccc(Oc3ccc(OC(F)F)c(-c4nn(C)cc4NC(=O)c4cnn5cccnc45)c3)c2)C1 (racemic) [Example 210, N-[3-[2-(difluoromethoxy)-5-[3-[rac-(3R)-3-(dimethylamino)pyrrolidine-1-carbonyl]phenoxy]phenyl]-1-methyl-pyrazol-4-yl]pyrazolo[1,5-a]pyrimidine-3-carboxamide] | 50 nM | 
0.63 nM | 0.85 nM |  | NCc1ccnn1-c1cccc(Oc2ccc(OC(F)F)c(-c3n[nH]cc3NC(=O)c3cnn4cccnc34)c2)c1 [Example 65, N-[3-[5-[3-[5-(aminomethyl)pyrazol-1-yl]phenoxy]-2-(difluoromethoxy)phenyl]-1H-pyrazol-4-yl]pyrazolo[1,5-a]pyrimidine-3-carboxamide] | 120 nM | 
0.36 nM | 0.34 nM |  | O=C(Nc1c[nH]nc1-c1cc(Oc2cccc(C3CNCCO3)c2)ccc1OC(F)F)c1cnn2cccnc12 (stereo not drawn) [Example 9, N-[3-[2-(difluoromethoxy)-5-(3-morpholin-2-ylphenoxy)phenyl]-1H-pyrazol-4-yl]pyrazolo[1,5-a]pyrimidine-3-carboxamide] | 93 nM | 
0.75 nM | 0.73 nM |  | CN1CC(O)(c2cc(Oc3ccc(OC(F)F)c(-c4nn(C)cc4NC(=O)c4cnn5cccnc45)c3)ccc2F)C1 [Example 104, N-[3-[2-(difluoromethoxy)-5-[4-fluoro-3-(3-hydroxy-1-methyl-azetidin-3-yl)phenoxy]phenyl]-1-methyl-pyrazol-4-yl]pyrazolo[1,5-a]pyrimidine-3-carboxamide] | 45 nM | 
0.55 nM | 0.73 nM |  | COCCNCc1cccc(Oc2ccc(OC(F)F)c(-c3nn(C)cc3NC(=O)c3cnn4cccnc34)c2)c1 [Example 27, N-[3-[2-(difluoromethoxy)-5-[3-[(2-methoxyethylamino)methyl]phenoxy]phenyl]-1-methyl-pyrazol-4-yl]pyrazolo[1,5-a]pyrimidine-3-carboxamide] | 20 nM | 
0.39 nM | 0.57 nM |  | CN1CC(O)(c2cncc(Oc3ccc(OC(F)F)c(-c4nn(C)cc4NC(=O)c4cnn5cccnc45)c3)c2)C1 [Example 189, N-[3-[2-(difluoromethoxy)-5-[[5-(3-hydroxy-l-methyl-azetidin-3-yl)-3-pyridyl]oxy]phenyl]-1-methyl-pyrazol-4-yl]pyrazolo[1,5-a]pyrimidine-3-carboxamide] | 78 nM | 
0.41 nM | 0.25 nM |  | CNCCn1cc(NC(=O)c2cnn3cccnc23)c(-c2cc(Oc3ccccc3)ccc2OC(F)F)n1 [Example 26, N-[3-[2-(difluoromethoxy)-5-phenoxy-phenyl]-1-[2 (methylamino)ethyl]pyrazol-4-yl]pyrazolo[1,5-a]pyrimidine-3-carboxamide] | 12 nM | 
0.76 nM | 2.6 nM |  | Cn1cc(NC(=O)c2cnn3cccnc23)c(-c2cc(Oc3ccc(CN4CCC[C@H](CO)C4)cc3)ccc2OC(F)F)n1 (racemic) [Example 162, 3-[2-(difluoromethoxy)-5-[4-[[rac-(3S)-3-(hydroxymethyl)-1-piperidyl]methyl]phenoxy]phenyl]-1-methyl-pyrazol-4-yl]pyrazolo[1,5-a]pyrimidine-3-carboxamide] | 32 nM | 
0.38 nM | 0.52 nM |  | Cn1cc(NC(=O)c2cnn3cccnc23)c(-c2cc(Oc3cccc(C4CNCCO4)c3)ccc2OC(F)F)n1 (racemic) [Example 38, N-[3-[2-(difluoromethoxy)-5-[3-[rac-(2R)-morpholin-2-yl]phenoxy]phenyl]-1-methyl-pyrazol-4-yl]pyrazolo[1,5-a]pyrimidine-3-carboxamide] | 22 nM | 
 | 0.55 nM | 0.4 nM | CN1CC(O)(c2cccc(Oc3ccc(OC(F)F)c(-c4n[nH]cc4NC(=O)c4cnn5cccnc45)c3)c2)C1 [Example 138, N-[3-[2-(difluoromethoxy)-5-[3-(3-hydroxy-l-methyl-azetidin-3-yl)phenoxy]phenyl]-1H-pyrazol-4-yl]pyrazolo[1,5-a]pyrimidine-3-carboxamide] |  | 150 nM
0.43 nM | 0.49 nM |  | Cn1cc(NC(=O)c2cnn3cccnc23)c(-c2cc(Oc3cc(C(F)(F)F)cc(C4(O)CNC4)c3)ccc2OC(F)F)n1 [Example 105, N-[3-[2-(difluoromethoxy)-5-[3-(3-hydroxyazetidin-3-yl)-5-(trifluoromethyl)phenoxy]phenyl]-1-methyl-pyrazol-4-yl]pyrazolo[1,5-a]pyrimidine-3-carboxamide] | 81 nM | 
0.7 nM | 1.1 nM |  | O=C(Nc1c[nH]nc1-c1cc(Oc2cccc(OCC(F)(F)F)c2)ccc1OC(F)F)c1cnn2cccnc12 [Example 4, N-[3-[2-(difluoromethoxy)-5-[3-(2,2,2-trifluoroethoxy)phenoxy]phenyl]-1H-pyrazol-4-yl]pyrazolo[1,5-a]pyrimidine-3-carboxamide] | 18 nM | 
1.4 nM | 2.1 nM |  | CN1CCCC(O)(Cn2cc(Oc3ccc(OC(F)F)c(-c4nn(C)cc4NC(=O)c4cnn5cccnc45)c3)cn2)C1 (stereo not drawn) [Example 194, N-[3-[2-(difluoromethoxy)-5-[1-[(3-hydroxy-l-methyl-3-piperidyl)methyl]pyrazol-4-yl]oxy-phenyl]-1-methyl-pyrazol-4-yl]pyrazolo[1,5-a]pyrimidine-3-carboxamide] |  | 64 nM
0.2 nM | 0.29 nM |  | Cc1n[nH]cc1Oc1ccc(OC(F)F)c(-c2nn(C)cc2NC(=O)c2cnn3cccnc23)c1 [Example 151, N-[3-[2-(difluoromethoxy)-5-[(3-methyl-1H-pyrazol-4-yl)oxy]phenyl]-1-methy1-pyrazol-4-yl]pyrazolo[1,5-a]pyrimidine-3-carboxamide] | 19 nM | 
0.18 nM | 0.24 nM |  | Cc1ccc(Oc2ccc(OC(F)F)c(-c3n[nH]cc3NC(=O)c3cnn4cccnc34)c2)cc1C(=O)N(C)C [Example 10, N-[3-[2-(difluoromethoxy)-5-[3-(dimethylcarbamoyl)-4-methyl-phenoxy]phenyl]-1H-pyrazol-4-yl]pyrazolo[1,5-a]pyrimidine-3-carboxamide] | 42 nM | 
0.46 nM | 0.38 nM |  | CCn1cc(NC(=O)c2cnn3cccnc23)c(-c2cc(Oc3cccc(C4(O)CNC4)c3)ccc2OC(F)F)n1 [Example 112, N-[3-[2-(difluoromethoxy)-5-[3-(3-hydroxyazetidin-3-yl)phenoxy]phenyl]-1-ethyl-pyrazol-4-yl]pyrazolo[1,5-a]pyrimidine-3-carboxamide] | 110 nM | 
1.6 nM | 1.5 nM |  | Cn1cc(NC(=O)c2cnn3cccnc23)c(-c2cc(Oc3cccc(CN4CCOCC4)c3)ccc2OC(F)F)n1 [Example 46, N-[3-[2-(difluoromethoxy)-5-[3-(morpholinomethyl)phenoxy]phenyl]-1-methyl-pyrazol-4-yl]pyrazolo[1,5-a]pyrimidine-3-carboxamide] | 67 nM | 
0.74 nM | 0.61 nM |  | Cn1cc(NC(=O)c2cnn3cccnc23)c(-c2cc(Oc3cnn(CC4CNC4)c3)ccc2OC(F)F)n1 [Example 123, N-[3-[5-[1-(azetidin-3-ylmethyl)pyrazol-4-yl]oxy-2-(difluoromethoxy)phenyl]-1-methyl-pyrazol-4-yl]pyrazolo[1,5-a]pyrimidine-3-carboxamide] | 370 nM | 
